Melting point data for 66 molecules are collected here from patent publication US6506749B2, “7-oxo-pyridopyrimidines (I)” (Syntex (U.S.A.) LLC, priority 2000, dated 2003).

Where a name gives a salt, the structure may show the parent alone.

For the molecule `CCn1c(=O)c(-c2ccccc2Cl)cc2cnc(NC3CCS(=O)(=O)CC3)nc21.Cl`, the melting point (in general, the temperature, or range, at which the solid turns liquid) was in the range of 285.2 to 286.7 °C.

Molecule `CN1CCN(Nc2ncc3cc(-c4ccccc4Cl)c(=O)n(C)c3n2)CC1` [Example 85] returned a melting point of 125.7 to 128.1 °C.

Turning to `Cl.Cn1c(=O)c(-c2ccccc2Cl)cc2cnc(NC3CCC4(CC3)NC(=O)NC4=O)nc21` (stereo not drawn), the melting point is greater than 300 °C.

`Cl.O=c1c(-c2ccccc2Cl)cc2cnc(NC3CCOCC3)nc2n1CCO` came in with a melting point of 217 to 220 °C.

Turning to `Cc1ccccc1-c1cc2cnc(NC3CCN(S(=O)(=O)C(F)(F)F)CC3)nc2n(C)c1=O.Cl`, the melting point lay in the range of 153 to 162 °C.

Turning to `CC1C(=O)C(c2ccccc2Cl)=Cc2cnc(NOCc3ccccc3)nc21.Cl` (stereo not drawn), the melting point was in the range of 199.2 to 199.5 °C.

Turning to `Cl.Cn1c(=O)c(-c2ccccc2Cl)cc2cnc(N[C@H]3CCCCNC3=O)nc21`, the melting point lay in the range of 140 to 144 °C.

In the case of `Cl.O=c1[nH]c2nc(NC3(CO)CCCC3)ncc2cc1-c1ccccc1Cl`, the melting point was 290 to 293 °C.

Consider `O=CO[C@H]1CC[C@H](Nc2ncc3cc(-c4ccccc4Cl)c(=O)[nH]c3n2)CC1` [Cpd 19], for which the melting point was greater than 300 °C.

On to `Cl.Cn1c(=O)c(-c2ccccc2Cl)cc2cnc(NC3CCC(C(=O)O)CC3)nc21` (stereo not drawn), for which the melting point fell in the range of 263.6 to 264.2 °C.

`Cl.O=c1[nH]c2nc(NCC3CCC(O)CC3)ncc2cc1-c1ccccc1Cl` (stereo not drawn): the melting point lay in the range of 205 to 213 °C.

In the case of `Cl.O=C1CCC(Nc2ncc3cc(-c4ccccc4Cl)c(=O)[nH]c3n2)CC1`, the melting point fell in the range of 265.5 to 269.9 °C.

The molecule `CCS(=O)(=O)N1CCC(Nc2ncc3cc(-c4ccccc4Cl)c(=O)n(C)c3n2)CC1.Cl` yielded a melting point of 144 to 150 °C.

In turn, `CC(C)(C)Cn1c(=O)c(-c2ccccc2Cl)cc2cnc(NC3CCS(=O)(=O)CC3)nc21.Cl` came in with a melting point of 223.7 to 230.2 °C.

For the molecule `CCS(=O)(=O)N1CCC(Nc2ncc3cc(-c4ccccc4C)c(=O)n(C)c3n2)CC1.Cl`, the melting point is 218.5 to 219.3 °C.

Take `C[C@H](Nc1ncc2cc(-c3ccccc3Cl)c(=O)n(N)c2n1)C(C)(C)O.Cl`: the melting point was greater than 300 °C.

Turning to `Cl.Cn1c(=O)c(-c2ccccc2F)cc2cnc(NC3CCN(S(C)(=O)=O)CC3)nc21`, the melting point lay in the range of 205 to 207.5 °C.

The molecule `Cl.Cn1c(=O)c(-c2ccccc2Cl)cc2cnc(NC3CCN(S(C)(=O)=O)CC3)nc21` yielded a melting point of 185 to 194 °C.

`CS(=O)(=O)N[C@H]1CC[C@H](Nc2ncc3c(n2)=NC(=O)C(c2ccccc2Cl)C=3)CC1` (stereo partly drawn) (as salt: hydrochloric acid salt) [Example 16, 2-(trans-4-methanesulfonylaminocyclohexylamino)-6-(2-chlorophenyl)-pyrido[2,3-d]pyrimidin-7-one]: the melting point is greater than 300 °C.

For `O=c1c(-c2ccccc2Cl)cc2cnc(N[C@H]3CC[C@H](O)CC3)nc2n1Cc1ccccc1` (as salt: HCl) [Example 41], the melting point lay in the range of 202 to 206 °C.

The molecule `COC1CCC(Nc2ncc3cc(-c4ccccc4Cl)c(=O)n(C)c3n2)CC1.Cl` (stereo not drawn) had a melting point of 189 to 192 °C.

For the molecule `CC(C)S(=O)(=O)N1CCC(Nc2ncc3cc(-c4ccccc4F)c(=O)n(C)c3n2)CC1.Cl`, the melting point is 204 to 209 °C.

On to `CC(C)(CO)Nc1ncc2cc(-c3ccccc3Cl)c(=O)n(N)c2n1.Cl`, for which the melting point was 145 to 163 °C.

On to `Cl.Cn1c(=O)c(-c2ccccc2Cl)cc2cnc(NC3CC(C)(C)NC(C)(C)C3)nc21`, for which the melting point is greater than 300 °C.

The molecule `O=c1c(-c2ccccc2Cl)cc2cnc(N[C@H]3CC[C@H](O)CC3)nc2n1CC(F)(F)F` [Example 55] had a melting point of 227.2 to 230.4 °C.

Take `Cl.Cn1c(=O)c(-c2ccccc2Cl)cc2cnc(N[C@@H]3CCOC3)nc21`: the melting point was 171.9 to 173 °C.

As to `CCS(=O)(=O)N1CCC(Nc2ncc3cc(-c4ccccc4OC)c(=O)n(C)c3n2)CC1.Cl`, the melting point fell in the range of 120.3 to 139.7 °C.

The molecule `COc1ccccc1-c1cc2cnc(NC3CCN(S(=O)(=O)CC(F)(F)F)CC3)nc2n(C)c1=O.Cl` gave a melting point of 194.7 to 196 °C.

The molecule `Cc1ccccc1-c1cc2cnc(NC3CCOCC3)nc2n(C)c1=O.Cl` yielded a melting point of 222.9 to 225.9 °C.

Turning to `Cl.NC(=O)O[C@H]1CC[C@H](Nc2ncc3cc(-c4ccccc4Cl)c(=O)[nH]c3n2)CC1`, the melting point lay in the range of 291 to 293.5 °C.

Molecule `Cl.Cn1c(=O)c(-c2ccccc2Cl)cc2cnc(NC3CCOC3)nc21` (stereo not drawn) yielded a melting point of 193.9 to 194.5 °C.

For the molecule `Cn1c(=O)c(-c2ccccc2Cl)cc2cnc(NC3CCC4(CC3)OCCCO4)nc21` [Cpd 8], the melting point is 196.1 to 196.5 °C.

Regarding `Cl.O=c1[nH]c2nc(N[C@H]3CC[C@H](O)CC3)ncc2cc1-c1ccccc1Cl`, the melting point was in the range of 191.1 to 194.3 °C.

Take `COC(=O)CN1CCC(Nc2ncc3cc(-c4ccccc4Cl)c(=O)n(C)c3n2)CC1.Cl`: the melting point lay within 150 to 168 °C.

`Cl.Cn1c(=O)c(-c2ccccc2Cl)cc2cnc(N[C@H]3CC[C@H](OC(N)=O)CC3)nc21`: the melting point was 234.7 to 235.4 °C.

Take `Cl.O=c1c(-c2ccccc2Cl)cc2cnc(N[C@H]3CC[C@H](O)CC3)nc2n1CCO`: the melting point was 210.5 to 212 °C.

Take `COc1ccccc1-c1cc2cnc(NC3CCN(S(C)(=O)=O)CC3)nc2n(C)c1=O.Cl`: the melting point was in the range of 202.7 to 204.3 °C.

In turn, `Cn1c(=O)c(-c2ccccc2Cl)cc2cnc(N[C@H]3CC[C@H](NS(C)(=O)=O)CC3)nc21` (as salt: hydrochloride) [Example 14, 2-(trans-4-methanesulfonylaminocyclohexylamino)-6-(2-chlorophenyl)-8-methyl-pyrido[2,3-d]pyrimidin-7-one] showed a melting point of 260.9 to 261.1 °C.

Molecule `CC(C)CNn1c(=O)c(-c2ccccc2Cl)cc2cnc(NC3CCOCC3)nc21.Cl` yielded a melting point of 111.3 to 117.5 °C.

`Cl.Cn1c(=O)c(-c2ccccc2F)cc2cnc(NC3CCN(S(=O)(=O)C(F)(F)F)CC3)nc21`: the melting point lay in the range of 213.5 to 221 °C.

`Cl.Cn1c(=O)c(-c2ccccc2Cl)cc2cnc(NC3CCN(CC(F)(F)F)CC3)nc21` displayed a melting point of 180 to 183 °C.

In turn, `Cl.Cn1c(=O)c(-c2ccccc2F)cc2cnc(NC3CCN(S(=O)(=O)CC(F)(F)F)CC3)nc21` had a melting point of 225.9 to 226.4 °C.

The molecule `CCS(=O)(=O)N1CCC(Nc2ncc3cc(-c4ccccc4F)c(=O)n(C)c3n2)CC1.Cl` showed a melting point of 192.5 to 195 °C.

`Cl.Cn1c(=O)c(-c2ccccc2Cl)cc2cnc(NC3CCS(=O)(=O)C3)nc21` (stereo not drawn) had a melting point of 256 to 260 °C.

In turn, `Cl.Cn1c(=O)c(-c2ccccc2Cl)cc2cnc(NC3CCN(S(=O)(=O)CC(F)(F)F)CC3)nc21` yielded a melting point of 215 to 219 °C.

Molecule `Cn1c(=O)c(-c2ccccc2Cl)cc2cnc(N[C@H]3CC[C@H](N)CC3)nc21` (as salt: hydrochloride) [Example 13, 2-(trans-4-aminocyclohexylamino)-6-(2-chlorophenyl)-8-methyl-pyrido[2,3-d]pyrimidin-7-one] had a melting point of 190.3 to 191.4 °C.

`Cn1c(=O)c(-c2ccccc2Cl)cc2cnc(NC3CCSCC3)nc21` (as salt: HCl) [Example 78, 2-(4-tetrahydrothiopyranylamino)-6-(2-chlorophenyl)-8-methyl-8H-pyrido[2,3-d]pyrimidin-7-one]: the melting point lay within 232.1 to 233.1 °C.

Turning to `Cl.Cn1c(=O)c(-c2ccccc2Cl)cc2cnc(NC3CCN(CCS(C)(=O)=O)CC3)nc21`, the melting point is 204.6 to 205.6 °C.

Regarding `CCCS(=O)(=O)N1CCC(Nc2ncc3cc(-c4ccccc4F)c(=O)n(C)c3n2)CC1.Cl`, the melting point was 206 to 209 °C.

For the molecule `CCCS(=O)(=O)N1CCC(Nc2ncc3cc(-c4ccccc4Cl)c(=O)n(C)c3n2)CC1.Cl`, the melting point fell in the range of 193.3 to 194.1 °C.

Take `CCS(=O)(=O)CCC(C)Nc1ncc2cc(-c3ccccc3Cl)c(=O)n(C)c2n1` (stereo not drawn) (as salt: hydrochloride) [Example 102]: the melting point is 160.1 to 167 °C.

`Cc1ccccc1-c1cc2cnc(NC3CCS(=O)(=O)CC3)nc2n(C)c1=O.Cl` gave a melting point of 240 to 258 °C.

Molecule `Cl.Cn1c(=O)c(-c2ccccc2Cl)cc2cnc(NC3CCC4(CC3)OCC(C)(CO)CO4)nc21` (stereo not drawn) showed a melting point of 180.3 to 181.2 °C.

For `Cl.Cn1c(=O)c(-c2ccccc2Cl)cc2cnc(N[C@H]3CC[C@H](NS(C)(=O)=O)CC3)nc21`, the melting point was in the range of 260.9 to 261.1 °C.

With `COc1ccccc1-c1cc2cnc(NC3CCN(S(=O)(=O)C(F)(F)F)CC3)nc2n(C)c1=O.Cl`, the melting point lay within 140.8 to 147.3 °C.

The molecule `Cl.Cn1c(=O)c(-c2ccccc2Cl)cc2cnc(NC3(CO)CCCCC3)nc21` returned a melting point of 185 to 188.6 °C.

Molecule `Cl.Cn1c(=O)c(-c2ccccc2Cl)cc2cnc(NC3CCN(CC#N)CC3)nc21` returned a melting point of 228.3 to 228.9 °C.

Consider `COc1ccccc1-c1cc2cnc(NC3CCN(S(=O)(=O)C(C)C)CC3)nc2n(C)c1=O.Cl`, for which the melting point fell in the range of 157 to 163.1 °C.

On to `Cl.Cn1c(=O)c(-c2ccccc2Cl)cc2cnc(NC3CCN(C(N)=O)CC3)nc21`, for which the melting point fell in the range of 192 to 202 °C.

`CCOC(=O)C1CCC(Nc2ncc3cc(-c4ccccc4Cl)c(=O)n(C)c3n2)CC1.Cl` (stereo not drawn) displayed a melting point of 192.1 to 198.3 °C.

On to `N[C@H]1CC[C@H](Nc2ncc3cc(-c4ccccc4Cl)c(=O)[nH]c3n2)CC1` (as salt: salt) [Cpd 17], for which the melting point was greater than 300 °C.

The molecule `CCCS(=O)(=O)N1CCC(Nc2ncc3cc(-c4ccccc4OC)c(=O)n(C)c3n2)CC1.Cl` registered a melting point of 59.7 to 63.8 °C.

Turning to `Cl.N#CCn1c(=O)c(-c2ccccc2Cl)cc2cnc(NC3CCOCC3)nc21`, the melting point was in the range of 230.2 to 230.4 °C.

The molecule `Cl.O=c1c(-c2ccccc2Cl)cc2cnc(N[C@H]3CC[C@H](O)CC3)nc2n1C1CC1` displayed a melting point of 241.7 to 242.3 °C.

The molecule `COc1ccccc1-c1cc(/C=N\C(=N)NC2CCOCC2)cn(C)c1=O.Cl` registered a melting point of 212 to 213.7 °C.

`CO[C@H]1CC[C@H](N(C)c2ncc3cc(-c4ccccc4Cl)c(=O)n(C)c3n2)CC1.Cl` gave a melting point of 182.3 to 183.1 °C.
